Measurements taken from patent publication US8802708B2 (priority 2004, dated 2014).
Where “and” joins values, the source holds several entries; their conditions need not be identical. Equal values may be shown once. Read-outs that look alike come from different tables or passages of the source.

Assays:
late blight fungus = assay type: in vivo, tomato (variety: Ponderosa); settings: for synergistic effect in mixed use with Compound No. 1: within the same concentration range as the preceding table
downy mildew [1] = assay: Cucumber downy mildew treating effect test (Test Example 1, Compound No. 1 with other fungicides); assay type: in vivo, cucumber (variety: Sagami Hanjiro)
Method: A cucumber (variety: Sagami Hanjiro) was cultivated in a plastic pot of 7.5 cm in diameter, and when it reached the bifoliate stage, a spore suspension of downy mildew was spray-inoculated thereto. Each of the liquids to be tested was sprayed thereto 17 hours thereafter using a spray gun at a ratio of 5 ml per seedling. In addition, the above-described Compound No. 1 liquid was also sprayed in the same manner. After keeping in a constant temperature chamber at 22 to 24° C. for 6 days, area of the lesion on the first leaf was inspected to calculate lesion area ratio (%), with the results shown in Table 3 and Table 4. In addition, each of the theoretical values of the infection ratio calculated based on the Colby's formula is also shown by the parentheses in Table 3 and Table 4.

downy mildew [2] = assay: Cucumber downy mildew treating effect test (Reference Example, Compound No. 1 with spreaders); assay type: in vivo, cucumber (variety: Sagami Hanjiro); settings: no mixed use of spreader
Method: An effect reinforcing component was dispersed in water to a concentration of from 1,000 times to 10,000 times, and then the above-described Compound No. […] In this case, the spreaders shown in Table 1 and Table 2 were used as the effect reinforcing components. In addition, for the sake of comparison, a predetermined concentration (63 ppm or 16 ppm) of Compound No. 1 liquid containing no effect reinforcing component was prepared in the same manner as the above-described water dispersion.
A cucumber (variety: Sagami Hanjiro) was cultivated in a plastic pot of 7.5 cm in diameter, and when it reached the bifoliate stage, a spore suspension of downy mildew was spray-inoculated thereto. Each of the water dispersions to be tested was sprayed thereto 17 hours thereafter using a spray gun at a ratio of 5 ml per seedling. In addition, the above-described Compound No. 1 liquid was also sprayed in the same manner. After keeping in a constant temperature chamber at 22 to 24° C. for 6 days, area of the lesion on the first leaf was inspected to calculate lesion area ratio (%), with the results shown in Table 1 and Table 2. In addition, each of the theoretical values of the infection ratio calculated based on the Colby's formula was also shown by the parentheses in Table 1 and Table 2. In this connection, results similar to those which are shown in Table 1 and Table 2 are obtained within the same concentration range when a liquid comprising the Compound No. 1 and at least one selected from the group consisting of Dimethomorph, Chlorothalonil, a copper compound, Iprovalicarb, Zoxamide, phosphorous acid or a salt thereof, Fluazinam, Cyazofamid, Flumorph, Benthiavalicarb-isopropyl, Ethaboxam, Methalaxyl-M and Benalaxyl-M was used instead of the Compound No. 1 liquid.

[3] = other fungicide alone 100 g/ha, 300 liters per hectare
[4] = other fungicide alone 250 g/ha, 300 liters per hectare
[5] = other fungicide alone 200 ppm (Compound No. 1 0 ppm)
[6] = other fungicide alone 25 g/ha, 300 liters per hectare
[7] = other fungicide alone 250 ppm (Compound No. 1 0 ppm)

## O=[N+]([O-])c1cc(C(F)(F)F)c(Cl)c([N+](=O)[O-])c1Nc1ncc(C(F)(F)F)cc1Cl [Fluazinam]
Late blight fungus; [3]
  lesion area ratio: 37.5%
Late blight fungus; [4]
  lesion area ratio: 37.5%

## [Cl-].[Cu+2].[Cu+2].[OH-].[OH-].[OH-] [Basic copper chloride, basic copper chloride]
Downy mildew [1]; other fungicide alone 1,000 ppm (Compound No. 1 0 ppm)
  lesion area ratio: 100%
Late blight fungus; other fungicide alone 500 ppm, sprayed at 10 ml per seedling
  lesion area ratio: 100%
Late blight fungus; other fungicide alone 1,000 ppm, sprayed at 10 ml per seedling
  lesion area ratio: 100%

## Cc1c(Br)c2ccc(F)cc2n1S(=O)(=O)c1ncn(S(=O)(=O)N(C)C)n1 [Compound No. 1, 1-(N,N-dimethylsulfamoyl)-3-(3-bromo-6-fluoro-2-methylindol-1-yl)sulfonyl-1,2,4-triazole]
Downy mildew [2]; Compound No. 1 4 ppm
  lesion area ratio: 30%
Downy mildew [2]; Compound No. 1 16 ppm
  lesion area ratio: 60%
Downy mildew [2]; Compound No. 1 63 ppm
  lesion area ratio: 40%
Downy mildew [1]; Compound No. 1 4 ppm, no mixed use of other fungicide
  lesion area ratio: 30%
Downy mildew [1]; Compound No. 1 16 ppm, no mixed use of other fungicide
  lesion area ratio: 60%
Downy mildew [1]; Compound No. 1 63 ppm, no mixed use of other fungicide
  lesion area ratio: 40%
Late blight fungus; Compound No. 1 1 ppm, no mixed use of other fungicide, sprayed at 10 ml per seedling
  lesion area ratio: 83%
Late blight fungus; Compound No. 1 alone 25 g/ha, 300 liters per hectare
  lesion area ratio: 62.5% and 37.5%
Late blight fungus; Compound No. 1 alone 250 g/ha, 300 liters per hectare
  lesion area ratio: 31.3% and 25.0% and 37.5%

## CCNc1nc(CC)c(C(=O)NC(C#N)c2cccs2)s1 (centres unmarked) [Ethaboxam]
Downy mildew [1]; [5]
  lesion area ratio: 30%
Late blight fungus; [6]
  lesion area ratio: 6.25%
Late blight fungus; [3]
  lesion area ratio: 6.25%

## CCCOC(=O)NCCCN(C)C [Propamocarb]
Downy mildew [1]; other fungicide alone 1,600 ppm (Compound No. 1 0 ppm)
  lesion area ratio: 60%
Late blight fungus; [3]
  lesion area ratio: 87.5%
Late blight fungus; other fungicide alone 400 g/ha, 300 liters per hectare
  lesion area ratio: 75.0%

## CC(C)OC(=O)N[C@H](C(=O)N[C@H](C)c1nc2ccc(F)cc2s1)C(C)C [Benthiavalicarb-isopropyl]
Late blight fungus
  synergistic effect in mixed use with Compound No. 1: Synergistic effect can also be obtained

## COCC(=O)N(c1c(C)cccc1C)[C@H](C)C(=O)OC [Metalaxyl-M]
Late blight fungus
  synergistic effect in mixed use with Compound No. 1: Synergistic effect can also be obtained

## O=[PH]([O-])[O-].[K+].[K+] [Potassium phosphite, potassium phosphite (K2HPO3)]
Downy mildew [1]; [7]
  lesion area ratio: 100%

## COc1ccc(/C(=C\C(=O)N2CCOCC2)c2ccc(F)cc2)cc1OC [Flumorph]
Late blight fungus; [3]
  lesion area ratio: 31.3%
Late blight fungus; [4]
  lesion area ratio: 12.5%

## Cc1ccc(-c2c(Cl)nc(C#N)n2S(=O)(=O)N(C)C)cc1 [Cyazofamid]
Late blight fungus; other fungicide alone 10 g/ha, 300 liters per hectare
  lesion area ratio: 25.0%
Late blight fungus; other fungicide alone 40 g/ha, 300 liters per hectare
  lesion area ratio: 18.8%

## COc1ccc(C(=CC(=O)N2CCOCC2)c2ccc(Cl)cc2)cc1OC [Dimethomorph]
Downy mildew [1]; [7]
  lesion area ratio: 100%
Downy mildew [1]; other fungicide alone 350 ppm (Compound No. 1 0 ppm)
  lesion area ratio: 100%
Late blight fungus; [6]
  lesion area ratio: 87.5%
Late blight fungus; [3]
  lesion area ratio: 75.0%
Late blight fungus; [4]
  lesion area ratio: 62.5%

## O=[PH]([O-])[O-].[Na+].[Na+] [Sodium phosphite, sodium phosphite (Na2HPO3)]
Late blight fungus; other fungicide alone 500 g/ha, 300 liters per hectare
  lesion area ratio: 75.0%
Late blight fungus; other fungicide alone 1000 g/ha, 300 liters per hectare
  lesion area ratio: 75.0%
Late blight fungus; other fungicide alone 1500 g/ha, 300 liters per hectare
  lesion area ratio: 50.0%

## COC(=O)[C@@H](C)N(C(=O)Cc1ccccc1)c1c(C)cccc1C [Benalaxyl-M]
Late blight fungus; [6]
  lesion area ratio: 50.0%
Late blight fungus; [3]
  lesion area ratio: 25.0%
Late blight fungus; [4]
  lesion area ratio: 6.25%

## Cc1ccc(C(C)NC(=O)[C@@H](NC(=O)OC(C)C)C(C)C)cc1 (some centres unmarked) [Iprovalicarb]
Downy mildew [1]; [7]
  lesion area ratio: 100%
Late blight fungus; [6]
  lesion area ratio: 25.0%
Late blight fungus; [3]
  lesion area ratio: 6.25%
Late blight fungus; [4]
  lesion area ratio: 6.25%

## [Cu+2].[OH-].[OH-] [Cupric hydroxide, cupric hydroxide]
Late blight fungus; other fungicide alone 200 g/ha, 300 liters per hectare
  lesion area ratio: 50.0%
Late blight fungus; other fungicide alone 800 g/ha, 300 liters per hectare
  lesion area ratio: 43.3%
Late blight fungus; other fungicide alone 2000 g/ha, 300 liters per hectare
  lesion area ratio: 43.8%

## CCC(C)(NC(=O)c1cc(Cl)c(C)c(Cl)c1)C(=O)CCl (centres unmarked) [Zoxamide]
Downy mildew [1]; [5]
  lesion area ratio: 100%
Late blight fungus; [6]
  lesion area ratio: 43.8%
Late blight fungus; [3]
  lesion area ratio: 50.0%

## N#Cc1c(Cl)c(Cl)c(Cl)c(C#N)c1Cl [Chlorothalonil]
Downy mildew [1]; other fungicide alone 500 ppm (Compound No. 1 0 ppm)
  lesion area ratio: 100%
Late blight fungus; other fungicide alone 13 ppm, sprayed at 10 ml per seedling
  lesion area ratio: 100%
Late blight fungus; other fungicide alone 25 ppm, sprayed at 10 ml per seedling
  lesion area ratio: 17%
Late blight fungus; [3]
  lesion area ratio: 18.8%
Late blight fungus; [4]
  lesion area ratio: 25.0%
